Measured values reported in publication PMC6254154 (Molecules, 2009).

Tests used:
LAAO of CR venom = target: T1, LAAO of CR venom (Calloselasma rhodostoma, UniProt P81382); assay: Inhibition of LAAO activity of CR venom (enzyme-coupled assay); assay type: biochemical; settings: CR venom 50 µg; pre-incubated 1 h at 37 °C; mean ± S.E.M. (n = 2)
T1 construct: from tissue; host or cells: crude snake venom (CR)
Procedure: (§1) LAAO activity of CR and NK venoms was determined by using an enzyme-coupled assay. The assay mixture contained 0.025 mL 0.014% peroxidase and 0.2 M triethanolamine buffer (1 mL, pH 7.6) that contained 0.1% L-leucine and 0.0065% o-dianisidine. After incubation at 25 °C for 3 min, 0.1 mL CR or NK venom in PBS (1 mg/mL) was added, and an increase in absorbance at 436 nm (Shimadzu UV-VIS spectrophotometer UV-160A) was measured against blank. Enzymatic activity was calculated from the linear portion of the time–absorbance plot, where one unit of enzymatic activity was defined as the amount of enzyme that caused an increase of 0.001 absorbance units per minute. The percent inhibition of LAAO activity by MSKE and its isolated phenolic principles was evaluated by pre-incubating CR or NK venom (0.1 mL, 1 mg/mL) with test sample in sterile water for injection (SWI) (0.1 mL) for 1 h at 37 °C. After pre-incubation, the mixture was centrifuged at 10,000 rpm for 5 min, and supernatant (0.1 mL) was evaluated for LAAO activity. Venoms, test sample, and solvents alone were used as controls. The anti-LAAO potential of the extract and its phenolic principles was presented as percent inhibition of the enzymatic activity versus dose. ED50, the effective dose that LAAO activity of the venoms was reduced by 50%, was calculated.

PLA2 of NK venom = assay: Inhibition of PLA2 activity of NK venom (indirect hemolytic assay on agarose-erythrocyte-egg yolk gel plates); assay type: biochemical, Naja naja kaouthia; settings: NK venom 3.4 µg (one MIHD); pre-incubated 1 h at 37 °C; mean ± S.E.M. (n = 2)
Procedure: (§2) PLA2 activity in CR and NK venoms was measured using an indirect hemolytic assay on agarose-erythrocyte-egg yolk gel plates to define the minimum indirect hemolytic dose (MIHD), the dose of venom that induced a hemolysis halo of 20 mm diameter after incubation for 20 h at 37 °C. The inhibition of PLA2 activity by MSKE and its isolated phenolic principles was determined against one MIHD of CR and NK venoms. Test solutions and the venoms (0.05 mL each) were pre-incubated for 1 h at 37 °C. After centrifugation at 10,000 rpm for 10 min, the supernatant (20 µL) was tested for PLA2 activity. The anti-PLA2 potential of the extract and its phenolic principles was presented as percent inhibition of the enzymatic activity versus dose, in which 100% inhibition should produce no clear zone. ED50, the effective dose that PLA2 activity of the venoms was reduced by 50%, was calculated.

PLA2 of CR venom = assay: Inhibition of PLA2 activity of CR venom (indirect hemolytic assay on agarose-erythrocyte-egg yolk gel plates); assay type: biochemical, Calloselasma rhodostoma; settings: CR venom 17.1 µg (one MIHD); pre-incubated 1 h at 37 °C; mean ± S.E.M. (n = 2)
Procedure: as §2

[1] = tested on: hyaluronidase of NK venom; assay: Inhibition of hyaluronidase activity of NK venom (turbidimetric); assay type: biochemical, Naja naja kaouthia; settings: NK venom 250 µg; pre-incubated 30 min at 37 °C; mean ± S.E.M. (n = 2)
Procedure: (§3) Hyaluronidase activity was determined according to the methods of Ferrante and Yingprasertchai et al. with slight modification. CR or NK venom (25-1,000 µg) in PBS (pH 7.4) was incubated with hyaluronic acid (50 μg) in 0.2 M sodium acetate buffer (1 mL, pH 5) that contained 0.15 M NaCl for 25 min at 37 °C. The reaction was stopped by adding 2.5% cetyltrimethylammonium bromide in 2% NaOH (2 mL). The optical density at 400 nm of each sample was read after 30 min with a Shimadzu UV-VIS spectrophotometer UV-160A against blank. Turbidity-reducing activity was expressed as the percentage of the remaining hyaluronic acid, taking the absorbance of a tube to which no enzyme was added as 100%. The venom concentration that produced a reduction in turbidity of ~50% was used in inhibition experiments. […] Blanks containing only the buffer and test sample were run in parallel. The anti-hyaluronidase potential of the extract and its phenolic principles was presented as percent inhibition of the enzymatic activity versus dose. ED50, the effective dose that hyaluronidase activity of the venoms was reduced by 50%, was calculated.

LAAO of NK venom = assay: Inhibition of LAAO activity of NK venom (enzyme-coupled assay); assay type: biochemical, Naja naja kaouthia; settings: NK venom 50 µg; pre-incubated 1 h at 37 °C; mean ± S.E.M. (n = 2)
Procedure: as §1

[2] = tested on: hyaluronidase of CR venom; assay: Inhibition of hyaluronidase activity of CR venom (turbidimetric); assay type: biochemical, Calloselasma rhodostoma; settings: CR venom 250 µg; pre-incubated 30 min at 37 °C; mean ± S.E.M. (n = 2)
Procedure: as §3

T1 sequence (P81382 19-516): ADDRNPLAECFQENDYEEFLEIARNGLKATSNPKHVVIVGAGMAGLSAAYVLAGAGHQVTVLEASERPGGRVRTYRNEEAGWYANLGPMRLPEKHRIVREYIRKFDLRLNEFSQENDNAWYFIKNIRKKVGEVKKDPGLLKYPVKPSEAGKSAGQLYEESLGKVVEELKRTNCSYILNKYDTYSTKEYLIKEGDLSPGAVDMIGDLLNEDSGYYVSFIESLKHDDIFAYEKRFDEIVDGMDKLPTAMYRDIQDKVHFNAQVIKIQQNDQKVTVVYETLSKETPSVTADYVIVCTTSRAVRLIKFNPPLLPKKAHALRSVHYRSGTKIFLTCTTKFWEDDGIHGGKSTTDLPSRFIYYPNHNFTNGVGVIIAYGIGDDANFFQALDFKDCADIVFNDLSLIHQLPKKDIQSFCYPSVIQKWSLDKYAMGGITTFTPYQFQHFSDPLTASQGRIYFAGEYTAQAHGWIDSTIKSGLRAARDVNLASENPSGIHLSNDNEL

| SMILES | LAAO (ED50, µg) CR venom (LAAO of CR venom) [µg] | PLA2 (ED50, µg) NK venom (PLA2 of NK venom) [µg] | PLA2 (ED50, µg) CR venom (PLA2 of CR venom) [µg] | Hyaluronidase (ED50, µg) NK venom [1] [µg] | LAAO (ED50, µg) NK venom (LAAO of NK venom) [µg] | Hyaluronidase (ED50, µg) CR venom [2] [µg] |
| --- | --- | --- | --- | --- | --- | --- |
| O=C(O)c1cc(O)c(O)c(O)c1 [GA, gallic acid] | 1.7 ± 3.4 | 123.5 ± 2.5 | 66.0 ± 2.5 | 14.8 ± 1.4 | 4.5 ± 2.8 | 16.0 ± 2.5 |
| COC(=O)c1cc(O)c(O)c(O)c1 [MG, methyl gallate] | 2.3 ± 2.4 | 108.7 ± 2.0 | 42.9 ± 2.3 | 8.6 ± 2.1 | 4.4 ± 2.0 | 5.9 ± 2.4 |
| O=C(OC[C@H]1O[C@@H](OC(=O)c2cc(O)c(O)c(O)c2)[C@H](OC(=O)c2cc(O)c(O)c(O)c2)[C@@H](OC(=O)c2cc(O)c(O)c(O)c2)[C@@H]1OC(=O)c1cc(O)c(O)c(O)c1)c1cc(O)c(O)c(O)c1 [PGG, 1,2,3,4,6-penta-O-galloyl-β-D-glucopyranose] | 0.9 ± 2.4 | 30.2 ± 2.4 | 25.6 ± 1.3 | 2.6 ± 1.7 | 2.2 ± 2.0 | 3.4 ± 2.4 |
